In patent US20110082205A1, “Docosahexaenoic Acid Gel Caps” (priority 2009, published 2011):
Marks after values point to notes of the source that are not given here.

Key:
male Wister rats [1] = test: Effect on triglyceride levels in high fructose diet rats; assay type: in vivo, Wistar rats; conditions: for Triglycerides % of control: actual means; for Serum Triglycerides LSMEAN: least squares mean; for Triglycerides: oral gavage, mean ± SD
Text: The effect of the DHA ethyl ester (DHA-EE) produced according to the method of Example 2 on triglyceride levels was investigated using male Wister rats. The DHA-EE used in this example contained DHA at about 93.6% (wt/wt) of the total fatty acid content of the dosage form. The effect of purified DHA-EE was compared to two different DHA-containing products: DHASCO-T® (Martek Bioscience Corporation, Columbia, Md.) and Lovaza® (Reliant Pharmaceuticals, Inc., Durham, N.C.). DHASCO-T® comprises approximately 45% DHA and 55% other fatty acids (with substantially no EPA). Lovaza® comprises approximately 41.7% DHA ethyl ester, 51.7% EPA ethyl ester, and 6.4% other fatty acids. The vehicle control comprised corn oil. 84 Wistar rats were randomized into 7 groups of 12 rats each. Each rat was administered orally a high fructose diet for 4-5 weeks to raise triglyceride levels. After 4-5 weeks, rats with a triglyceride level <300 mg/dL were excluded. Then each rat was administered either (a) a vehicle control, (b) DHA ethyl ester (0.6 g/kg/day, 1.3 g/kg/day, 2.5 g/kg/day, or 5.0 g/kg/day), (c) DHASCO-T (5.0 g/kg/day), or (d) Lovaza (5.0 g/kg/day) for 28 days by oral gavage. Diets were controlled for calories, nutrients and levels of vitamin E. Triglyceride levels of the rats were measured at 14 days and 28 days. Triglyceride values shown are averages for each treatment group, presented as actual mean values.
The triglyceride results presented below in Table 8 are calculated from the same data set as in Table 7. Triglyceride values shown in Table 8 are averages for each treatment group, presented as least squares mean values.

male Wister rats [2] = test: Effect on total cholesterol levels in rats; assay type: in vivo, Wistar rats; conditions: for Serum Cholesterol % of control: actual means; for Serum Cholesterol LSMEAN: least squares mean; for Serum Cholesterol: mean ± SD
Method: The effect of the DHA ethyl ester of Example 2 on cholesterol levels was investigated using male Wister rats, and was compared to DHASCO-T® and Lovaza®. The rats were administered either (a) a vehicle control, (b) DHA ethyl ester (0.6 g/kg/day, 1.3 g/kg/day, 2.5 g/kg/day, or 5.0 g/kg/day), (c) DHASCO-T (5.0 g/kg/day), or (d) Lovaza (5.0 g/kg/day) for 28 days. Cholesterol levels, i.e., total cholesterol, of the rats were measured at 14 days and 28 days. Total cholesterol values shown are averages for each treatment group, i.e., actual mean values.
The cholesterol results presented below in Table 10 are calculated from the same data set as in Table 9. Cholesterol level values shown in Table 10 are averages for each treatment group, presented as least squares mean values.

[3] = rat, in vivo
Text: The plasma DHA fatty acid area percent and plasma EPA fatty acid area percent were determine in the rats at day 1 and day 29 (post necropsy).

[4] = day 14, 0.6 g/kg/day fatty acid
[5] = day 14, 1.3 g/kg/day fatty acid
[6] = day 14, 2.5 g/kg/day fatty acid
[7] = day 14, 5.0 g/kg/day fatty acid
[8] = day 28, 0.6 g/kg/day fatty acid
[9] = day 28, 1.3 g/kg/day fatty acid
[10] = day 28, 2.5 g/kg/day fatty acid
[11] = day 28, 5.0 g/kg/day fatty acid

Q: Which results are given for `CC/C=C\C/C=C\C/C=C\C/C=C\C/C=C\C/C=C\CCC(=O)OCC` [DHA-EE, ethyl docosahexaenoate]?
A: triglyceride levels (male Wister rats [1]; 14 days, lowest dosage level (0.6 g/kg/day)): reduces triglyceride levels; Serum Triglycerides % of control (LSMEAN) (male Wister rats [1]; [4]): 65%; Triglycerides % of control (male Wister rats [1]; [4]): 67%; Serum Triglycerides LSMEAN (male Wister rats [1]; [4]): 168.4† mg/dL; Triglycerides (male Wister rats [1]; [4]): 176.5 ± 96.4 mg/dL; Serum Triglycerides % of control (LSMEAN) (male Wister rats [1]; [5]): 67%; Triglycerides % of control (male Wister rats [1]; [5]): 66%; Serum Triglycerides LSMEAN (male Wister rats [1]; [5]): 173.6† mg/dL; Triglycerides (male Wister rats [1]; [5]): 175.2 ± 50.6 mg/dL; Serum Triglycerides % of control (LSMEAN) (male Wister rats [1]; [6]): 47%; Triglycerides % of control (male Wister rats [1]; [6]): 44%; Serum Triglycerides LSMEAN (male Wister rats [1]; [6]): 120.2† mg/dL; Triglycerides (male Wister rats [1]; [6]): 115.5 ± 60.9 mg/dL; Serum Triglycerides % of control (LSMEAN) (male Wister rats [1]; [7]): 43%; Triglycerides % of control (male Wister rats [1]; [7]): 37%; Serum Triglycerides LSMEAN (male Wister rats [1]; [7]): 110.7† mg/dL; Triglycerides (male Wister rats [1]; [7]): 97.6 ± 47.8 mg/dL; triglyceride levels vs control (male Wister rats [1]; day 28, 0.6 g DHA-EE, DHASCO-T 5.0 g/kg/day): not significantly lower than control; Serum Triglycerides % of control (LSMEAN) (male Wister rats [1]; [8]): 93%; Triglycerides % of control (male Wister rats [1]; [8]): 95%; Serum Triglycerides LSMEAN (male Wister rats [1]; [8]): 174.5 mg/dL; Triglycerides (male Wister rats [1]; [8]): 182.7 ± 86.9 mg/dL; Serum Triglycerides % of control (LSMEAN) (male Wister rats [1]; [9]): 60%; Triglycerides % of control (male Wister rats [1]; [9]): 60%; Serum Triglycerides LSMEAN (male Wister rats [1]; [9]): 113.1† mg/dL; Triglycerides (male Wister rats [1]; [9]): 114.7 ± 37.2 mg/dL; Serum Triglycerides % of control (LSMEAN) (male Wister rats [1]; [10]): 60%; Triglycerides % of control (male Wister rats [1]; [10]): 56%; Serum Triglycerides LSMEAN (male Wister rats [1]; [10]): 112.6† mg/dL; Triglycerides (male Wister rats [1]; [10]): 107.9 ± 58.4 mg/dL; Serum Triglycerides % of control (LSMEAN) (male Wister rats [1]; [11]): 47%; Triglycerides % of control (male Wister rats [1]; [11]): 41%; Serum Triglycerides LSMEAN (male Wister rats [1]; [11]): 87.6† mg/dL; Triglycerides (male Wister rats [1]; [11]): 78.9 ± 46.5 mg/dL; cholesterol levels (male Wister rats [2]; by 14 days, lowest dosage level): reduces cholesterol levels; Serum Cholesterol % of control (LSMEAN) (male Wister rats [2]; [4]): 80%; Serum Cholesterol % of control (male Wister rats [2]; [4]): 79%; Serum Cholesterol LSMEAN (male Wister rats [2]; [4]): 72.4 mg/dL; Serum Cholesterol (male Wister rats [2]; [4]): 72.2 ± 17.7 mg/dL; Serum Cholesterol % of control (LSMEAN) (male Wister rats [2]; [5]): 82%; Serum Cholesterol % of control (male Wister rats [2]; [5]): 82%; Serum Cholesterol LSMEAN (male Wister rats [2]; [5]): 74.6 mg/dL; Serum Cholesterol (male Wister rats [2]; [5]): 75.0 ± 24.0 mg/dL; Serum Cholesterol % of control (LSMEAN) (male Wister rats [2]; [6]): 85%; Serum Cholesterol % of control (male Wister rats [2]; [6]): 85%; Serum Cholesterol LSMEAN (male Wister rats [2]; [6]): 77.4 mg/dL; Serum Cholesterol (male Wister rats [2]; [6]): 77.6 ± 23.1 mg/dL; Serum Cholesterol % of control (LSMEAN) (male Wister rats [2]; [7]): 75%; Serum Cholesterol % of control (male Wister rats [2]; [7]): 74%; Serum Cholesterol LSMEAN (male Wister rats [2]; [7]): 67.8 mg/dL; Serum Cholesterol (male Wister rats [2]; [7]): 67.1 ± 17.9 mg/dL; Serum Cholesterol % of control (LSMEAN) (male Wister rats [2]; [8]): 80%; Serum Cholesterol % of control (male Wister rats [2]; [8]): 80%; Serum Cholesterol LSMEAN (male Wister rats [2]; [8]): 80.6 mg/dL; Serum Cholesterol (male Wister rats [2]; [8]): 80.3 ± 21.8 mg/dL; Serum Cholesterol % of control (LSMEAN) (male Wister rats [2]; [9]): 62%; Serum Cholesterol % of control (male Wister rats [2]; [9]): 62%; Serum Cholesterol LSMEAN (male Wister rats [2]; [9]): 61.6† mg/dL; Serum Cholesterol (male Wister rats [2]; [9]): 62.0 ± 16.0 mg/dL; Serum Cholesterol % of control (LSMEAN) (male Wister rats [2]; [10]): 72%; Serum Cholesterol % of control (male Wister rats [2]; [10]): 72%; Serum Cholesterol LSMEAN (male Wister rats [2]; [10]): 71.3† mg/dL; Serum Cholesterol (male Wister rats [2]; [10]): 71.5 ± 17.8 mg/dL; Serum Cholesterol % of control (LSMEAN) (male Wister rats [2]; [11]): 60%; Serum Cholesterol % of control (male Wister rats [2]; [11]): 60%; Serum Cholesterol LSMEAN (male Wister rats [2]; [11]): 60.9† mg/dL; Serum Cholesterol (male Wister rats [2]; [11]): 60.2 ± 19.3 mg/dL; plasma DHA fatty acid area percent [3]: correlates with increasing dosing of DHA; plasma EPA fatty acid area percent [3]: does not increase in rats administered DHA-EE or DHASCO® to the same extent that it is increased in Lovaza®
